Like-named read-outs stand apart in the source and are kept apart here.
Experiments:
D2LR [1] = molecular target: T1, D2LR (Homo sapiens, UniProt P14416); experiment: inhibition of forskolin-stimulated cAMP production, BRET biosensor; assay type: cell-based;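 also: Flp-In-CHO cells stably expressing CAMYEL cAMP BRET sensor, agonist plus 10 µM forskolin, net BRET after forskolin-vehicle subtraction, parameters from complete operational model of allosterism and agonism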
Procedure: Flp-In-CHO cells stably coexpressing the CAMYEL biosensor and DRs were plated into white 96-well CulturPlates (Revvity) and grown overnight. The cells were equilibrated in Hank’s balanced salt solution (HBSS) at 37 °C (or 25 °C when indicated) before starting the experiment. The cells were costimulated with the agonists and 10 μM forskolin for the indicated time frames when the BRET readings were captured. Coelenterazine (Nanolight Technology, AZ) was added at a final concentration of 5 μM at least 3 min prior to measurement. […] Net BRET was determined by subtraction of the vehicle control coadded with 10 μM forskolin.
Dose–response curves were fitted using the following three-parameter equation: response=bottom+top−bottom/1+10^(logEC50−log[A]) 5 where top and bottom represent the maximal and minimal asymptote of the dose response curve, [A] is the molar concentration of the agonist, and EC50 is the molar concentration of the agonist required to give a response half-way between bottom and top.

D2LR [2] = molecular target: T1, D2LR; experiment: whole cell [3H]raclopride binding assay
Procedure: The binding reaction was conducted in HBSS for 1 h at 37 °C. The adherent cells were washed two times with cold 0.9% NaCl solution, and 100 μL/well scintilation liquid was added to the plate. The remaining radioactivity was detected in a MicroBeta counter.

D1Rs = conditions: earlier report, reference number not given; cited from earlier work
[3] = orthosteric agonist efficacy, operational model
[4] = orthosteric ligand, radioligand binding assay

T1 sequence (P14416 whole entry): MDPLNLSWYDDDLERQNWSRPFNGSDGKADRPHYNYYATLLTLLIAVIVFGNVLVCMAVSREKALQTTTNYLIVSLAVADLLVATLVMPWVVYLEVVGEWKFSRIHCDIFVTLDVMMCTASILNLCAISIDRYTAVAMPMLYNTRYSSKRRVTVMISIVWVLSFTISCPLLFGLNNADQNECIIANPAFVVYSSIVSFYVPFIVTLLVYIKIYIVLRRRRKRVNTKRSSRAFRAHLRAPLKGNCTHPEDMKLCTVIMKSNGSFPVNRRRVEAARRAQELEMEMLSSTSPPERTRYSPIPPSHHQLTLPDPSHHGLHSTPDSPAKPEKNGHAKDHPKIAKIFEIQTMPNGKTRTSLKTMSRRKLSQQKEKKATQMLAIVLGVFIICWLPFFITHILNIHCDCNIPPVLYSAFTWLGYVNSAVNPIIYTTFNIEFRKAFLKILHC

Structure (SMILES) | LogτA (D2LR [1]; [3]) | τA (D2LR [1]; [3]) | LogτA (D2LR [1]) | τA (D2LR [1]) | other results
CCCN(CCC)CCc1cccc2c1CC(=O)N2 [ropirinole, reference compound] | 1.14 ± 0.08 | 13.8 |  |  | KA (D2LR [2]; [4]): 1350 nM; pKA (D2LR [2]; [4]): 5.87 ± 0.18
CCCN1CCC[C@@H](c2cccc(O)c2)C1 [S-(3)-PPP, reference compound] | 0.33 ± 0.05 | 2.14 |  |  | 
CC(C)C[C@H]1C(=O)N2CCC[C@H]2[C@]2(O)O[C@](NC(=O)[C@@H]3C=C4c5cccc6[nH]c(Br)c(c56)C[C@H]4N(C)C3)(C(C)C)C(=O)N12 [bromocriptine, reference compound] |  |  | 0.66 ± 0.04 | 4.6 | Kd (D2LR [2]): 1.32 nM
CCCN1C[C@H](CSC)C[C@@H]2c3cccc4[nH]cc(c34)C[C@H]21 [pergolide, reference compound] | 1.01 ± 0.03 | 10.2 |  |  | 
CN1CCc2cccc3c2[C@H]1Cc1ccc(O)c(O)c1-3 [apomorphine, reference compound] |  |  | 0.93 ± 0.02 | 8.5 | 
CC1Cc2ccccc2N1C(=O)c1nc2ccccc2s1 (stereo not shown) [D2 PAM1, 1,3-benzothiazol-2-yl(2-methyl-2,3-dihydro-indol-1-yl)methanone] |  |  |  |  | activity at D1Rs (D1Rs): does not display activity
CCCN[C@H]1CCc2nc(N)sc2C1 [pramipexole, reference compound] |  |  | 1.05 ± 0.04 | 11.2 | 
CCCN(CCc1cccs1)[C@H]1CCc2c(O)cccc2C1 [rotigotine, reference compound] |  |  | 1.17 ± 0.05 | 14.8 | Kd (D2LR [2]): 3.09 nM
